Converted amounts (≈) assume the structure as drawn.
What was measured:
[1] = test system: A549; assay: Cytotoxicity against human A549 cells; type: functional; details: read-out: ED50 (the source's name)
[2] = (§1) Toxicity in Artemia salina; type: organism-based; details: in vivo
[3] = test system: HT-29; assay: Cytotoxicity against human HT-29 cells; type: functional; details: read-out: ED50 (the source's name)
[4] = test system: MIA PaCa-2; assay: Cytotoxicity against human PaCa2 cells; type: functional; details: read-out: ED50 (the source's name)
[5] = Cytotoxicity against human […] cells; type: functional; details: read-out: ED50 (the source's name)
[6] = test system: PC-3; assay: Cytotoxicity against human PC-3 cells; type: functional; details: read-out: ED50 (the source's name)
[7] = test system: MCF7; assay: Cytotoxicity against human MCF7 cells; type: functional; details: read-out: ED50 (the source's name)
[8] = test system: Artemia salina; assay: as §1; type: organism-based; details: in vivo

Row | SMILES | EC50 [1] [µg/mL] | LC50 [2] [µg/mL] | EC50 [3] [µg/mL] | EC50 [4] [µg/mL] | EC50 [5] [µg/mL] | EC50 [6] [µg/mL] | EC50 [7] [µg/mL] | LC50 [8] [×10⁻² ug/ml]
1 | CCCCCCCCCCCCCCCCCCCCCC(=O)NCCc1c[nH]c2ccccc12 | > 10 | > 500 | > 10 | > 10 | > 10 | > 10 | > 10 | –
2 | CCCCCCCCCCCCCCCCCCCCCCCCCC(=O)NCCc1c[nH]c2ccccc12 | > 10 | > 500 | > 10 | > 10 | > 10 | > 10 | > 10 | –
3 | CCCCCCCCCCCCCCCCCCCCCCC(=O)NCCc1c[nH]c2ccccc12 | > 10 | > 500 | > 10 | > 10 | > 10 | > 10 | > 10 | –
4 | CCCCCCCCCCCCCCCC(=O)NCCc1c[nH]c2ccccc12 | > 10 | > 500 | > 10 | > 10 | > 10 | > 10 | > 10 | –
5 | CCCCCCCCCCCCCCCCCC(=O)NCCc1c[nH]c2ccccc12 | > 10 | > 500 | > 10 | > 10 | > 10 | > 10 | > 10 | –
6 | CCCCCCCCCCCCCCCCCCCC(=O)NCCc1c[nH]c2ccccc12 | > 10 | > 500 | > 10 | > 10 | > 10 | > 10 | > 10 | –
7 | CCCCCCCCCCCCCCCCCCCCCCCC(=O)NCCc1c[nH]c2ccccc12 | > 10 | > 500 | > 10 | > 10 | > 10 | > 10 | > 10 | –
8 | CCCCCCCCCCCCCCCCCCCCCCCCC(=O)NCCc1c[nH]c2ccccc12 | > 10 | > 500 | > 10 | > 10 | > 10 | > 10 | > 10 | –
9 | CCCCCCCCCC[C@H](O)[C@H]1CC[C@H]([C@H]2CC[C@H]([C@H](O)CCCCCCCCCCCCC3=C[C@H](C)OC3=O)O2)O1 [BULLANIN] | 0.47 (≈ 0.774 µM) | – | 1.69 (≈ 2.78 µM) | 1.92 (≈ 3.16 µM) | < 0.001 | < 0.001 | 1.35 (≈ 2.22 µM) | 1.6
10 | COc1cccc2c1C(=O)c1c(O)c3c(c(O)c1C2=O)C[C@@](O)(C(=O)CO)C[C@@H]3O[C@H]1C[C@H](N)[C@H](O)[C@H](C)O1 [DOXORUBICIN] | 0.89 (≈ 1.64 µM) | – | 3.7 (≈ 6.81 µM) | 0.0011 (≈ 0.00202 µM) | 0.0083 (≈ 0.0153 µM) | 0.0056 (≈ 0.0103 µM) | 3.6 (≈ 6.62 µM) | –
11 | CCCCCCCCCC[C@H](O)[C@@H]1CC[C@H]([C@H]2CC[C@@H]([C@H](O)CCCCCCCCCCCCC3=C[C@H](C)OC3=O)O2)O1 [MEMBRANACIN] | 0.4 (≈ 0.659 µM) | – | 3.04 (≈ 5.01 µM) | 2.1 (≈ 3.46 µM) | < 0.001 | < 0.001 | 2.18 (≈ 3.59 µM) | 5

Source: ChEMBL document CHEMBL1144086, “Tryptamine derived amides and acetogenins from the seeds of Rollinia mucosa” (J Nat Prod, 1999)
